Measurements reported in patent publication US20060069132A1, “Azolecarboxamide herbicides” (priority 2004, published 2006).
Like-named read-outs stand apart in the source and are kept apart here.

Legend:
barnyardgrass = assay: Test B flooded paddy test; assay type: in vivo, Echinochloa crus-galli; details: 1000 g ai/ha, scale 0 to 100 (0 no effect, 100 complete control)
Outline: (§1)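 Each value is a visual 0–100 response rating taken against controls 13 to 15 days after treatment in the greenhouse. Plants received formulated chemical postemergence at the 1- to 4-leaf stage or, in flooded paddy, at the 2-leaf stage.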

corn = assay: Test B pre-/postemergence herbicide test; assay type: in vivo, Zea mays
Outline: (§2)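 Response was scored visually 13 to 15 days after treatment against untreated greenhouse controls, 0 meaning no effect and 100 complete control. Formulations (solvent mixture plus surfactant) went onto soil after planting, onto foliage of 1- to 4-leaf plants, and onto 2-leaf plants in a flooded paddy set including rice and barnyardgrass.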

giant foxtail = assay: Test B pre-/postemergence herbicide test; assay type: in vivo, Setaria faberi
Outline: as §2

velvetleaf = assay: Test B pre-/postemergence herbicide test; assay type: in vivo, Abutilon theophrasti
Outline: as §2

blackgrass = assay: Test B postemergence herbicide test; assay type: in vivo, Alopecurus myosuroides
Outline: as §1

lambsquarters = assay: Test B pre-/postemergence herbicide test; assay type: in vivo, Chenopodium album
Outline: as §2

rice = assay: Test B flooded paddy test; assay type: in vivo, Oryza sativa; details: 1000 g ai/ha, scale 0 to 100 (0 no effect, 100 complete control)
Outline: (§3)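 Postemergence plants were sprayed with formulated test chemicals at 2 to 18 cm height (1- to 4-leaf stage); paddy species were grown to the 2-leaf stage. After 13 to 15 days in a greenhouse, injury was rated visually against untreated controls on a 0–100 scale (0 = no effect, 100 = complete control).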

Surinam grass = assay: Test B pre-/postemergence herbicide test; assay type: in vivo, Urochloa decumbens
Outline: as §2

large crabgrass = assay: Test B pre-/postemergence herbicide test; assay type: in vivo, Digitaria sanguinalis
Outline: as §2

wild oat = assay: Test B postemergence herbicide test; assay type: in vivo, Avena fatua
Outline: as §3

cocklebur = assay: Test B pre-/postemergence herbicide test; assay type: in vivo, Xanthium strumarium
Outline: (§4)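 Evaluation is visual, comparing treated with control plants on a scale where 0 means no effect and 100 means full control. Treatments were preemergence, or postemergence on seedlings 2–18 cm tall, and held 13–15 days in the greenhouse.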

[1] = system: small flower umbrella sedge; assay: Test B flooded paddy test; assay type: in vivo, Cyperus difformis; details: 1000 g ai/ha, scale 0 to 100 (0 no effect, 100 complete control)
Outline: as §1

wheat = assay: Test B postemergence herbicide test; assay type: in vivo, Triticum aestivum; parameters: key to Wheat plant response rating: 0 = no effect, 100 = complete control
Outline: as §3

morningglory = assay: Test B pre-/postemergence herbicide test; assay type: in vivo, Ipomoea coccinea
Outline: as §4

pigweed = assay: Test B pre-/postemergence herbicide test; assay type: in vivo, Amaranthus retroflexus
Outline: as §2

[2] = 125 g ai/ha, 0 is no effect, 100 is complete control, preemergence
[3] = Postemergence, 500 g ai/ha, scale 0 (no effect) to 100 (complete control)
[4] = postemergence, 125 g ai/ha, scale 0 to 100
[5] = Postemergence, 500 g ai/ha, visual rating after 13 to 15 days, scale 0 (no effect) to 100 (complete control)

Compound: CCN(CC)C(=O)c1cccc(NC(=O)c2nn(C(C)(C)C)nc2C)c1 [Compound 418]
- Barnyardgrass plant response rating (barnyardgrass): 80
- Plant response rating (0 to 100 scale), Corn (corn; [2]): 10
- Corn plant response rating (corn; [3]): 20
- Corn plant response rating (corn; [4]): 20
- Plant response rating (0 to 100 scale), Foxtail, Giant (giant foxtail; [2]): 80
- Foxtail, Giant plant response rating (giant foxtail; [3]): 40
- Foxtail, Giant plant response rating (giant foxtail; [4]): 20
- Plant response rating (0 to 100 scale), Velvetleaf (velvetleaf; [2]): 50
- Velvetleaf plant response rating (velvetleaf; [3]): 40
- Velvetleaf plant response rating (velvetleaf; [4]): 20
- Blackgrass plant response rating (blackgrass; [3]): 30
- Blackgrass plant response rating (blackgrass; [4]): 10
- Plant response rating (0 to 100 scale), Lambsquarters (lambsquarters; [2]): 100
- Lambsquarters plant response rating (lambsquarters; [3]): 90
- Lambsquarters plant response rating (lambsquarters; [4]): 60
- Rice plant response rating (rice): 60
- Plant response rating (0 to 100 scale), Surinam Grass (Surinam grass; [2]): 90
- Surinam Grass plant response rating (Surinam grass; [3]): 20
- Surinam Grass plant response rating (Surinam grass; [4]): 20
- Plant response rating (0 to 100 scale), Crabgrass, Large (large crabgrass; [2]): 100
- Crabgrass, Large plant response rating (large crabgrass; [3]): 30
- Crabgrass, Large plant response rating (large crabgrass; [4]): 20
- Oat, Wild plant response rating (wild oat; [3]): 10
- Oat, Wild plant response rating (wild oat; [4]): 0
- Plant response rating (0 to 100 scale), Cocklebur (cocklebur; [2]): 0
- Cocklebur plant response rating (cocklebur; [3]): 30
- Cocklebur plant response rating (cocklebur; [4]): 20
- Sedge, Umbrella plant response rating [1]: 80
- Wheat plant response rating (wheat; 500 g ai/ha, scale 0 to 100, 0 no effect, 100 complete control, preemergence): 100
- Wheat plant response rating (wheat; [3]): 20
- Wheat plant response rating (wheat; [4]): 10
- Plant response rating (0 to 100 scale), Morningglory (morningglory; [2]): 40
- Morningglory plant response rating (morningglory; [3]): 80
- Morningglory plant response rating (morningglory; [4]): 80
- Plant response rating (0 to 100 scale), Pigweed (pigweed; [2]): 100
- Pigweed plant response rating (pigweed; [3]): 80
- Pigweed plant response rating (pigweed; [4]): 70

Compound: CCn1nc(C(C)(C)C)cc1C(=O)Nc1cc(C(=O)N(C)C)ccc1F [Compound 6, N-[5-[(dimethylamino)carbonyl]-2-fluorophenyl]-3-(1,1-dimethylethyl)-1-ethyl-1H-pyrazole-5-carboxamide]
- pest or weed control at 1000 g/ha (barnyardgrass; Echinochloa crus-galli, 336 h, visual rating, 13 to 15 days, read-out: Barnyardgrass plant response rating): 90%
- plant injury at 125 g/ha (corn; Zea mays, post-emergence, Postemergence, 125 g ai/ha, scale 0 (no effect) to 100 (complete control), read-out: Corn plant response rating): 0%
- Corn plant response rating (crop injury, 0 = no effect, 100 = complete kill) at 500 g/ha (corn; Zea mays, post-emergence, Postemergence, 500 g ai/ha, visual rating after 13 to 15 days, scale 0 (no effect) to 100 (complete control)): 60%
- plant injury at 500 g/ha (corn; Zea mays, pre-emergence, Preemergence, 500 g ai/ha, scale 0 to 100, read-out: Corn plant response rating): 90%
- pest or weed control at 125 g/ha (giant foxtail; Setaria faberi, post-emergence, 336 h, Postemergence, 125 g ai/ha, scale 0 (no effect) to 100 (complete control), read-out: Foxtail, Giant plant response rating): 10%
- pest or weed control at 500 g/ha (giant foxtail; Setaria faberi, post-emergence, 336 h, Postemergence, 500 g ai/ha, visual rating after 13 to 15 days, scale 0 (no effect) to 100 (complete control), read-out: Plant response rating, Foxtail, Giant): 20%
- pest or weed control at 500 g/ha (giant foxtail; Setaria faberi, pre-emergence, 336 h, Preemergence, 500 g ai/ha, scale 0 to 100, read-out: Foxtail, Giant plant response rating): 100%
- pest or weed control at 125 g/ha (velvetleaf; Abutilon theophrasti, post-emergence, 336 h, Postemergence, 125 g ai/ha, scale 0 (no effect) to 100 (complete control), read-out: Velvetleaf plant response rating): 0%
- pest or weed control at 500 g/ha (velvetleaf; Abutilon theophrasti, post-emergence, 336 h, Postemergence, 500 g ai/ha, visual rating after 13 to 15 days, scale 0 (no effect) to 100 (complete control), read-out: Plant response rating, Velvetleaf): 60%
- pest or weed control at 500 g/ha (velvetleaf; Abutilon theophrasti, pre-emergence, 336 h, Preemergence, 500 g ai/ha, scale 0 to 100, read-out: Velvetleaf plant response rating): 100%
- pest or weed control at 125 g/ha (blackgrass; Alopecurus myosuroides, post-emergence, 336 h, Postemergence, 125 g ai/ha, scale 0 (no effect) to 100 (complete control), read-out: Blackgrass plant response rating): 20%
- Plant response rating, Blackgrass (blackgrass; [5]): 90
- pest or weed control at 125 g/ha (lambsquarters; Chenopodium album, post-emergence, 336 h, Postemergence, 125 g ai/ha, scale 0 (no effect) to 100 (complete control), read-out: Lambsquarters plant response rating): 30%
- pest or weed control at 500 g/ha (lambsquarters; Chenopodium album, post-emergence, 336 h, Postemergence, 500 g ai/ha, visual rating after 13 to 15 days, scale 0 (no effect) to 100 (complete control), read-out: Plant response rating, Lambsquarters): 100%
- pest or weed control at 500 g/ha (lambsquarters; Chenopodium album, pre-emergence, 336 h, Preemergence, 500 g ai/ha, scale 0 to 100, read-out: Lambsquarters plant response rating): 100%
- plant injury at 1000 g/ha (rice; Oryza sativa, 336 h, visual rating, 13 to 15 days, read-out: Rice plant response rating): 80%
- pest or weed control at 125 g/ha (Surinam grass; Urochloa decumbens, post-emergence, Postemergence, 125 g ai/ha, scale 0 (no effect) to 100 (complete control), read-out: Surinam Grass plant response rating): 10%
- pest or weed control at 500 g/ha (Surinam grass; Urochloa decumbens, post-emergence, Postemergence, 500 g ai/ha, visual rating after 13 to 15 days, scale 0 (no effect) to 100 (complete control), read-out: Plant response rating, Surinam Grass): 60%
- pest or weed control at 500 g/ha (Surinam grass; Urochloa decumbens, pre-emergence, Preemergence, 500 g ai/ha, scale 0 to 100, read-out: Surinam Grass plant response rating): 100%
- pest or weed control at 125 g/ha (large crabgrass; Digitaria sanguinalis, post-emergence, Postemergence, 125 g ai/ha, scale 0 (no effect) to 100 (complete control), read-out: Crabgrass, Large plant response rating): 20%
- pest or weed control at 500 g/ha (large crabgrass; Digitaria sanguinalis, post-emergence, Postemergence, 500 g ai/ha, visual rating after 13 to 15 days, scale 0 (no effect) to 100 (complete control), read-out: Plant response rating, Crabgrass, Large): 30%
- pest or weed control at 500 g/ha (large crabgrass; Digitaria sanguinalis, pre-emergence, Preemergence, 500 g ai/ha, scale 0 to 100, read-out: Crabgrass, Large plant response rating): 100%
- pest or weed control at 125 g/ha (wild oat; Avena fatua, post-emergence, 336 h, Postemergence, 125 g ai/ha, scale 0 (no effect) to 100 (complete control), read-out: Oat, Wild plant response rating): 10%
- Plant response rating, Oat, Wild (wild oat; [5]): 70
- pest or weed control at 125 g/ha (cocklebur; Xanthium strumarium, post-emergence, Postemergence, 125 g ai/ha, scale 0 (no effect) to 100 (complete control), read-out: Cocklebur plant response rating): 0%
- pest or weed control at 500 g/ha (cocklebur; Xanthium strumarium, post-emergence, Postemergence, 500 g ai/ha, visual rating after 13 to 15 days, scale 0 (no effect) to 100 (complete control), read-out: Plant response rating, Cocklebur): 80%
- pest or weed control at 500 g/ha (cocklebur; Xanthium strumarium, pre-emergence, Preemergence, 500 g ai/ha, scale 0 to 100, read-out: Cocklebur plant response rating): 100%
- pest or weed control at 1000 g/ha ([1]; Cyperus difformis, 336 h, visual rating, 13 to 15 days, read-out: Sedge, Umbrella plant response rating): 90%
- Plant response rating, Wheat (wheat; [5]): 40
- plant injury at 125 g/ha (wheat; Triticum aestivum, post-emergence, 336 h, Postemergence, 125 g ai/ha, scale 0 (no effect) to 100 (complete control), read-out: Wheat plant response rating): 0%
- pest or weed control at 125 g/ha (morningglory; Ipomoea, post-emergence, 336 h, Postemergence, 125 g ai/ha, scale 0 (no effect) to 100 (complete control), read-out: Morningglory plant response rating): 0%
- pest or weed control at 500 g/ha (morningglory; Ipomoea, post-emergence, 336 h, Postemergence, 500 g ai/ha, visual rating after 13 to 15 days, scale 0 (no effect) to 100 (complete control), read-out: Plant response rating, Morningglory): 0%
- pest or weed control at 125 g/ha (pigweed; Amaranthus retroflexus, post-emergence, 336 h, Postemergence, 125 g ai/ha, scale 0 (no effect) to 100 (complete control), read-out: Pigweed plant response rating): 20%
- pest or weed control at 500 g/ha (pigweed; Amaranthus retroflexus, post-emergence, 336 h, Postemergence, 500 g ai/ha, visual rating after 13 to 15 days, scale 0 (no effect) to 100 (complete control), read-out: Plant response rating, Pigweed): 70%
- pest or weed control at 500 g/ha (pigweed; Amaranthus retroflexus, pre-emergence, 336 h, Preemergence, 500 g ai/ha, scale 0 to 100, read-out: Pigweed plant response rating): 100%
